Test results from ChEMBL document CHEMBL1144007, “Activity of Mannich bases of 7-hydroxycoumarin against Flaviviridae” (Bioorg Med Chem, 2008).
Active and inactive are the calls of the source. The rule behind the calls is not given here.

Assays:
[1] = test system: Bovine viral diarrhea virus 1; assay: Antiviral activity against BVDV NADL in MDBK cells assessed as protection from virus-induced cytopathogenicity by MTT method; format: functional, organism-based; settings: Bovine viral diarrhea virus isolates and strains
[2] = test system: Human immunodeficiency virus 1; assay: Antiviral activity against HIV1; format: functional, organism-based
[3] = test system: Respiratory syncytial virus; assay: Antiviral activity against RSV A2 in VERO76 cells assessed as reduction of plaque number by MTT method; format: functional, organism-based; settings: human respiratory syncytial virus, A2, Vero 76
Reovirus sp. = assay: Antiviral activity against Reovirus; format: functional, organism-based
Vaccinia virus = assay: Antiviral activity against vaccinia virus; format: functional, organism-based; settings: Orthopoxvirus vaccinia
[4] = Cytotoxicity against human MT4 cells after 96 hrs by MTT method; format: cell-based
Yellow fever virus = assay: Antiviral activity against YFV in BHK cells assessed as protection from virus-induced cytopathogenicity by MTT method; format: functional, organism-based
Poliovirus 1 = assay: Antiviral activity against Human poliovirus 1 Sabin; format: functional
[5] = test system: Vesicular stomatitis virus; assay: Antiviral activity against vesicular stomatitis virus; format: functional, organism-based

Compound | EC50 [1] | Activity [2] | EC50 [3] | Activity (Reovirus sp.) | Activity (Vaccinia virus) | CC50 at 96 h [4] | EC50 (Yellow fever virus) | Activity (Poliovirus 1) | Activity [5]
CC(=O)Oc1ccc2ccc(=O)oc2c1Cc1c(C)[nH]c2ccccc12 | > 86 µM | inactive | > 100 µM | inactive | inactive | 62 µM | > 73 µM | inactive | inactive
Cc1cc(=O)oc2c(CN3CCN(C/C=C/c4ccccc4)CC3)c(O)ccc12 | > 18 µM | inactive | > 100 µM | inactive | inactive | 28 µM | > 53 µM | inactive | inactive
COCCN(CCOC)c1oc2ccc3ccccc3c2c(=O)c1Cc1c(OC(C)=O)ccc2c(C)cc(=O)oc12 | > 100 µM | inactive | ≥ 100 µM | inactive | inactive | > 100 µM | > 100 µM | inactive | inactive
COc1ccc2[nH]cc(Cc3c(OC(C)=O)ccc4c(C)cc(=O)oc34)c2c1 | > 100 µM | inactive | > 100 µM | inactive | inactive | 72 µM | > 100 µM | inactive | inactive
Cc1cc(=O)oc2c(CN3CCCCC3)c(O)ccc12 | > 100 µM | inactive | > 100 µM | inactive | inactive | > 100 µM | > 100 µM | inactive | inactive
CCOC(=O)N1CCN(Cc2c(O)ccc3c(C)cc(=O)oc23)CC1 | > 100 µM | inactive | ≥ 100 µM | inactive | inactive | > 100 µM | > 100 µM | inactive | inactive
CCCOc1ccc2c(C)cc(=O)oc2c1CN1CCOCC1 | > 100 µM | inactive | > 100 µM | inactive | inactive | > 100 µM | > 100 µM | inactive | inactive
O=c1ccc2ccc(O)c(CN3CCN(Cc4ccc5c(c4)OCO5)CC3)c2o1 | > 100 µM | inactive | > 100 µM | inactive | inactive | 13 µM | > 100 µM | inactive | inactive
CC(=O)Oc1ccc2c(C)cc(=O)oc2c1Cc1c(C)n(C)c2ccccc12 | > 40 µM | inactive | 26 µM | inactive | inactive | 24 µM | > 58 µM | inactive | inactive
CCCCCCCCOc1ccc2c(=O)c(Cc3c(OC(C)=O)ccc4c(C)cc(=O)oc34)c(N(CC)CC)oc2c1 | > 100 µM | inactive | > 100 µM | inactive | inactive | > 100 µM | > 100 µM | inactive | inactive
COCCN(CCOC)c1oc2ccc3ccccc3c2c(=O)c1Cc1c(OC(C)=O)ccc2ccc(=O)oc12 | 78 µM | inactive | 5 µM | inactive | inactive | > 100 µM | 100 µM | inactive | inactive
CCCOc1ccc2ccc(=O)oc2c1CN1CCc2ccccc2C1 | – | inactive | > 25 µM | inactive | inactive | 11 µM | > 19 µM | inactive | inactive
